In the NIST ThermoML archive (doi:10.1016/j.jct.2004.07.018):

Assay: mn = molality of the nth substance listed, in mol/kg
Settings: 101.3 kPa, Liquid, buoyancy

CCOS(=O)(=O)[O-].CCn1cc[n+](C)c1 [1-ethyl-3-methylimidazolium ethyl sulfate] + O
Settings	mass density [kg/m3]
278.15 K, m1 = 0.2224	1010
278.15 K, m1 = 0.4472	1019.6
278.15 K, m1 = 0.6739	1028.5
278.15 K, m1 = 0.903	1037.1
278.15 K, m1 = 1.132	1045.3
278.15 K, m1 = 1.364	1053.1
278.15 K, m1 = 1.598	1060.5
278.15 K, m1 = 1.835	1067.6
278.15 K, m1 = 2.072	1074.2
278.15 K, m1 = 2.313	1080.5
278.15 K, m1 = 2.554	1086.4
278.15 K, m1 = 2.798	1092.2
278.15 K, m1 = 3.044	1098.2
283.15 K, m1 = 0.2224	1009.6
283.15 K, m1 = 0.4472	1018.9
283.15 K, m1 = 0.6739	1027.7
283.15 K, m1 = 0.903	1036.1
283.15 K, m1 = 1.132	1044
283.15 K, m1 = 1.364	1051.5
283.15 K, m1 = 1.598	1058.8
283.15 K, m1 = 1.835	1065.6
283.15 K, m1 = 2.072	1072
283.15 K, m1 = 2.313	1078.2
283.15 K, m1 = 2.554	1084
283.15 K, m1 = 2.798	1089.6
283.15 K, m1 = 3.044	1095
288.15 K, m1 = 0.2224	1008.7
288.15 K, m1 = 0.4472	1017.8
288.15 K, m1 = 0.6739	1026.5
288.15 K, m1 = 0.903	1034.8
288.15 K, m1 = 1.132	1042.6
288.15 K, m1 = 1.364	1050.1
288.15 K, m1 = 1.598	1057.2
288.15 K, m1 = 1.835	1063.8
288.15 K, m1 = 2.072	1070.2
288.15 K, m1 = 2.313	1076.2
288.15 K, m1 = 2.554	1082
288.15 K, m1 = 2.798	1087.4
288.15 K, m1 = 3.044	1092.5
293.15 K, m1 = 0.2224	1007.6
293.15 K, m1 = 0.4472	1016.7
293.15 K, m1 = 0.6739	1025.2
293.15 K, m1 = 0.903	1033.3
293.15 K, m1 = 1.132	1041
293.15 K, m1 = 1.364	1048.3
293.15 K, m1 = 1.598	1055.2
293.15 K, m1 = 1.835	1061.9
293.15 K, m1 = 2.072	1068.1
293.15 K, m1 = 2.313	1074.1
293.15 K, m1 = 2.554	1079.6
293.15 K, m1 = 2.798	1085
293.15 K, m1 = 3.044	1090
298.15 K, m1 = 0.2224	1006.3
298.15 K, m1 = 0.4472	1015
298.15 K, m1 = 0.6739	1023.3
298.15 K, m1 = 0.903	1031.2
298.15 K, m1 = 1.132	1038.7
298.15 K, m1 = 1.364	1045.7
298.15 K, m1 = 1.598	1052.5
298.15 K, m1 = 1.835	1058.9
298.15 K, m1 = 2.072	1064.9
298.15 K, m1 = 2.313	1070.6
298.15 K, m1 = 2.554	1076.1
298.15 K, m1 = 2.798	1081.3
298.15 K, m1 = 3.044	1086.2
303.15 K, m1 = 0.2224	1004.7
303.15 K, m1 = 0.4472	1013.3
303.15 K, m1 = 0.6739	1021.6
303.15 K, m1 = 0.903	1029.3
303.15 K, m1 = 1.132	1036.8
303.15 K, m1 = 1.364	1043.9
303.15 K, m1 = 1.598	1050.6
303.15 K, m1 = 1.835	1057
303.15 K, m1 = 2.072	1062.9
303.15 K, m1 = 2.313	1068.6
303.15 K, m1 = 2.554	1074.1
303.15 K, m1 = 2.798	1079.4
303.15 K, m1 = 3.044	1084.3
308.15 K, m1 = 0.2224	1002.9
308.15 K, m1 = 0.4472	1011.6
308.15 K, m1 = 0.6739	1019.6
308.15 K, m1 = 0.903	1027.7
308.15 K, m1 = 1.132	1034.6
308.15 K, m1 = 1.364	1041.5
308.15 K, m1 = 1.598	1048.3
308.15 K, m1 = 1.835	1054.6
308.15 K, m1 = 2.072	1060.5
308.15 K, m1 = 2.313	1066.2
308.15 K, m1 = 2.554	1071.7
308.15 K, m1 = 2.798	1076.8
308.15 K, m1 = 3.044	1081.8
313.15 K, m1 = 0.2224	1001.1
313.15 K, m1 = 0.4472	1009.6
313.15 K, m1 = 0.6739	1017.9
313.15 K, m1 = 0.903	1025.6
313.15 K, m1 = 1.132	1032.8
313.15 K, m1 = 1.364	1039.7
313.15 K, m1 = 1.598	1046.4
313.15 K, m1 = 1.835	1052.8
313.15 K, m1 = 2.072	1058.8
313.15 K, m1 = 2.313	1064.4
313.15 K, m1 = 2.554	1069.8
313.15 K, m1 = 2.798	1074.9
313.15 K, m1 = 3.044	1079.8
318.15 K, m1 = 0.2224	999
318.15 K, m1 = 0.4472	1007.5
318.15 K, m1 = 0.6739	1015.6
318.15 K, m1 = 0.903	1023.1
318.15 K, m1 = 1.132	1030.4
318.15 K, m1 = 1.364	1037.3
318.15 K, m1 = 1.598	1043.9
318.15 K, m1 = 1.835	1050.2
318.15 K, m1 = 2.072	1056.1
318.15 K, m1 = 2.313	1061.7
318.15 K, m1 = 2.554	1067.1
318.15 K, m1 = 2.798	1072.3
318.15 K, m1 = 3.044	1077.1
323.15 K, m1 = 0.2224	996.6
323.15 K, m1 = 0.4472	1005.1
323.15 K, m1 = 0.6739	1013
323.15 K, m1 = 0.903	1020.5
323.15 K, m1 = 1.132	1027.9
323.15 K, m1 = 1.364	1034.7
323.15 K, m1 = 1.598	1041.3
323.15 K, m1 = 1.835	1047.7
323.15 K, m1 = 2.072	1053.6
323.15 K, m1 = 2.313	1059.4
323.15 K, m1 = 2.554	1064.8
323.15 K, m1 = 2.798	1070
323.15 K, m1 = 3.044	1074.9
328.15 K, m1 = 0.2224	994.1
328.15 K, m1 = 0.4472	1002.6
328.15 K, m1 = 0.6739	1010.6
328.15 K, m1 = 0.903	1018.1
328.15 K, m1 = 1.132	1025.3
328.15 K, m1 = 1.364	1032.1
328.15 K, m1 = 1.598	1038.7
328.15 K, m1 = 1.835	1045.1
328.15 K, m1 = 2.072	1051.1
328.15 K, m1 = 2.313	1056.8
328.15 K, m1 = 2.554	1062.4
328.15 K, m1 = 2.798	1067.4
328.15 K, m1 = 3.044	1072.7
333.15 K, m1 = 0.2224	991.4
333.15 K, m1 = 0.4472	999.8
333.15 K, m1 = 0.6739	1007.7
333.15 K, m1 = 0.903	1015.4
333.15 K, m1 = 1.132	1022.7
333.15 K, m1 = 1.364	1029.7
333.15 K, m1 = 1.598	1036.4
333.15 K, m1 = 1.835	1042.7
333.15 K, m1 = 2.072	1048.9
333.15 K, m1 = 2.313	1054.9
333.15 K, m1 = 2.554	1060.4
333.15 K, m1 = 2.798	1065.8
333.15 K, m1 = 3.044	1070.9
